In publication PMC9698340, “Discovery and SAR Study of Quinoxaline–Arylfuran Derivatives as a New Class of Antitumor Agents” (Pharmaceutics, 2022) one finds inhibition data, which are given here for 20 compounds.

What all share (assay type): cell-based
In experiment [1] the test system is HeLa cells. Description: CCK-8 antiproliferation assay, HeLa. Particulars: Homo sapiens; 20 μM, 48 h, CCK-8, mean ± SD; read-out: Inhibition Rate (%) at 20 μM, HeLa. On the procedure: (§1) Human lung carcinoma cell lines A549, human cervical cancer cell lines HeLa, human prostate cancer cell lines PC3, human colorectal carcinoma cell lines HCT116, and human liver cells L02 were purchased from the Chinese Academy of Sciences Shanghai Cell Bank (Shanghai, China). HeLa, A549, PC3, HCT116, and L02 cells were cultured in DMEM Dulbecco’s Modified Eagle Medium (DMEM; Gibco Inc., Gaithersburg, MD, USA). All cultures were provided with 10% fetal bovine serum (FBS; YHSM, Beijing, China), 100 IU/mL penicillin, and 100 μg/mL streptomycin, and cells were incubated at 37 °C in an atmosphere of 5% CO2.
(§2) Cell viability was determined using a CCK-8 kit (Apexbio, Houston, TX, USA). […] Subsequently, absorbance was assessed at 450 nm. Three duplicates were set in each group.
(§3) All synthesized quinoxalines compounds were tested for in vitro cytotoxicity against four cancer cell lines (HeLa, PC3, A549, and HCT116). The inhibitory effects of these compounds were evaluated using the CCK-8 assay after treatment with 20 μM of each compound. […] The species of phenyl substituents have a significant effect on the activity. […] By comparison, hydrophobic substitution at the phenyl ring gave derivatives with relatively low potency (QW7–8). In addition, large substituents on the phenyl ring exerted an unfavorable influence on the potency of the compounds (QW8 and QW16).

The subject of experiment [2] is PC3 cells. In words: CCK-8 antiproliferation assay, PC3. Conditions: Homo sapiens, PC-3; 20 μM, 48 h, CCK-8, mean ± SD; read-out: Inhibition Rate (%) at 20 μM, PC3. On the procedure:
as §1, §2, §3

The subject of experiment [3] is A549 cells. In words: CCK-8 antiproliferation assay, A549. Particulars: Homo sapiens, 20 μM, 48 h, CCK-8, mean ± SD, read-out: Inhibition Rate (%) at 20 μM, A549. On the procedure:
as §1, §2, §3
A general note: Tetrazolium dyes change colour on reduction, which living cells bring about.

Experiment [4] deals with HCT116 cells. In words: CCK-8 antiproliferation assay, HCT116. Particulars: Homo sapiens, HCT-116; 20 μM, 48 h, CCK-8, mean ± SD; read-out: Inhibition Rate (%) at 20 μM, HCT116. On the procedure:
as §1, §2, §3

Consider `COc1cc(-c2ccc(/C=N/NC(=O)c3ccccn3)o2)c(OC)cc1-c1ccc2nccnc2c1` [QW14, (E)-N’-((5-(2,5-dimethoxy-4-(quinoxalin-6-yl)phenyl)furan-2-yl)methylene)picolinohydrazide], for which the inhibition at 20 µM in experiment [1] was found to be 8.67 ± 0.24%; in experiment [2] it was 12.9 ± 0.31%; in experiment [3], 5.46 ± 0.7%; in experiment [4] it was 30.5 ± 0.55%.
As for `COc1cc(-c2ccc(/C=N/NC(=O)c3ccccn3)o2)c(OC)cc1-c1cnc2ccccc2n1` [QW6, (E)-N’-((5-(2,5-dimethoxy-4-(quinoxalin-2-yl)phenyl)furan-2-yl)methylene)picolinohydrazide], the inhibition at 20 µM was found to be 0.53 ± 0.12% in experiment [1], 0.1 ± 0.13% in experiment [2], 1.66 ± 0.61% in experiment [3] and 16.5 ± 0.25% in experiment [4].
In the same order, the values of `COc1cc(-c2ccc(/C=N/NC(=O)c3ccc(-c4ccccc4)cc3)o2)c(OC)cc1-c1cnc2ccccc2n1` [QW8, (E)-N’-((5-(2,5-dimethoxy-4-(quinoxalin-2-yl)phenyl)furan-2-yl)methylene)-[1,1’-biphenyl]-4-carbohydrazide] are 3.46 ± 0.17%, 11.8 ± 0.56%, 5.8 ± 0.02% and 20.92 ± 0.05%.
For `COc1cc(-c2cc(OC)c3ccccc3c2OC)c(OC)cc1-c1ccc(/C=N/NC(=O)c2ccc(O)cc2)o1` [QW20, (E)-N’-((5-(4-(1,4-dimethoxynaphthalen-2-yl)-2,5-dimethoxyphenyl)furan-2-yl)methylene)-4-hydroxybenzohydrazide], the inhibition at 20 µM was found to be 22.5 ± 0.25% in experiment [1], 15.6 ± 0.19% in experiment [2], 18.73 ± 0.1% in experiment [3] and 48.5 ± 0.01% in experiment [4].
In the same order, the values of `COc1cc(-c2ccc(/C=N/NC(=O)c3cccc(C)c3)o2)c(OC)cc1-c1cnc2ccccc2n1` [QW7, (E)-N’-((5-(2,5-dimethoxy-4-(quinoxalin-2-yl)phenyl)furan-2-yl)methylene)-3-methylbenzohydrazide] are 8.46 ± 0.42%, 4.73 ± 0.01%, 4.31 ± 0.08% and 2.18 ± 0.38%.
As to `COc1cc(-c2ccc(/C=N/NC(=O)c3cccc(C)c3)o2)c(OC)cc1-c1ccc2nccnc2c1` [QW15, (E)-N’-((5-(2,5-dimethoxy-4-(quinoxalin-6-yl)phenyl)furan-2-yl)methylene)-3-methylbenzohydrazide], the inhibition at 20 µM in experiment [1] is 14.26 ± 0.12%; in experiment [2], 13.77 ± 0.12%; in experiment [3], 9.44 ± 0.39%; in experiment [4] it was 18.8 ± 0.54%.
As to `COc1cc(-c2cc(OC)c3ccccc3c2OC)c(OC)cc1-c1ccc(/C=N/NC(=O)c2ccc(-c3ccccc3)cc2)o1` [QW24, (E)-N’-((5-(4-(1,4-dimethoxynaphthalen-2-yl)-2,5-dimethoxyphenyl)furan-2-yl)methylene)-[1,1’-biphenyl]-4-carbohydrazide], the inhibition at 20 µM in experiment [1] was 4.96 ± 0.61%; in experiment [2] it was 2.4 ± 0.07%; in experiment [3], 6 ± 0.1%; in experiment [4], 4.39 ± 0.52%.
With `COc1cc(-c2cc(OC)c3ccccc3c2OC)c(OC)cc1-c1ccc(/C=N/NC(=O)c2ccncc2)o1` [QW21, (E)-N’-((5-(4-(1,4-dimethoxynaphthalen-2-yl)-2,5-dimethoxyphenyl)furan-2-yl)methylene)isonicotinohydrazide], the inhibition at 20 µM was 0.36 ± 0.6% in experiment [1], 0.12 ± 0.2% in experiment [2], 0.68 ± 0.36% in experiment [3] and 4.46 ± 0.24% in experiment [4].
In the same order, the values of `COc1cc(-c2cc(OC)c3ccccc3c2OC)c(OC)cc1-c1ccc(/C=N/NC(=O)c2ccc(F)cc2)o1` [QW17, (E)-N’-((5-(4-(1,4-dimethoxynaphthalen-2-yl)-2,5-dimethoxyphenyl)furan-2-yl)methylene)-4-fluorobenzohydrazide] are 6.49 ± 0.17%, 11.7 ± 0.66%, 0.44 ± 0.16% and 4.69 ± 0.5%.
In the same order, the values of `COc1cc(-c2ccc(/C=N/NC(=O)c3ccc(F)cc3)o2)c(OC)cc1-c1cnc2ccccc2n1` [QW1, (E)-N’-((5-(2,5-dimethoxy-4-(quinoxalin-2-yl)phenyl)furan-2-yl)methylene)-4-fluorobenzohydrazide] are 5.14 ± 0.13%, 5.13 ± 0.59%, 7.47 ± 0.52% and 15.33 ± 0.14%.
In the same order, the values of `COc1cc(-c2ccc(/C=N/NC(=O)c3ccc(F)cc3)o2)c(OC)cc1-c1ccc2nccnc2c1` [QW9, (E)-N’-((5-(2,5-dimethoxy-4-(quinoxalin-6-yl)phenyl)furan-2-yl)methylene)-4-fluorobenzohydrazide] are 17.1 ± 0.41%, 3.98 ± 0.49%, 1.16 ± 0.63% and 29.9 ± 0.57%.
As for `COc1cc(-c2ccc(/C=N/NC(=O)c3ccc(O)cc3)o2)c(OC)cc1-c1cnc2ccccc2n1` [QW4, (E)-N’-((5-(2,5-dimethoxy-4-(quinoxalin-2-yl)phenyl)furan-2-yl)methylene)-4-hydroxybenzohydrazide], the inhibition at 20 µM in experiment [1] was found to be 44.29 ± 0.05%; in experiment [2] it was 38.74 ± 0.2%; in experiment [3], 25.5 ± 0.62%; in experiment [4], 30.7 ± 0.04%.
As for `COc1cc(-c2cc(OC)c3ccccc3c2OC)c(OC)cc1-c1ccc(/C=N/NC(=O)c2ccccc2)o1` [QW18, (E)-N’-((5-(4-(1,4-dimethoxynaphthalen-2-yl)-2,5-dimethoxyphenyl)furan-2-yl)methylene)benzohydrazide], the inhibition at 20 µM in experiment [1] turned out to be 4.3 ± 0.45%; in experiment [2] it was 8.09 ± 0.13%; in experiment [3] it was 8.82 ± 0.08%; in experiment [4] it was 10.9 ± 0.46%.
Turning to `COc1cc(-c2cc(OC)c3ccccc3c2OC)c(OC)cc1-c1ccc(/C=N/NC(=O)c2cccnc2)o1` [QW19, (E)-N’-((5-(4-(1,4-dimethoxynaphthalen-2-yl)-2,5-dimethoxyphenyl)furan-2-yl)methylene)nicotinohydrazide], the inhibition at 20 µM in experiment [1] was found to be 9.56 ± 0.65%; in experiment [2] it was 8.37 ± 0.21%; in experiment [3] it was 0.15 ± 0.35%; in experiment [4], 4.61 ± 0.66%.
In the same order, the values of `COc1cc(-c2ccc(/C=N/NC(=O)c3cccnc3)o2)c(OC)cc1-c1ccc2nccnc2c1` [QW11, (E)-N’-((5-(2,5-dimethoxy-4-(quinoxalin-6-yl)phenyl)furan-2-yl)methylene)nicotinohydrazide] are 45.5 ± 0.61%, 29.35 ± 0.18%, 17.27 ± 0.03% and 39.9 ± 0.68%.
In the same order, the values of `COc1cc(-c2ccc(/C=N/NC(=O)c3ccc(-c4ccccc4)cc3)o2)c(OC)cc1-c1ccc2nccnc2c1` [QW16, (E)-N’-((5-(2,5-dimethoxy-4-(quinoxalin-6-yl)phenyl)furan-2-yl)methylene)-[1,1’-biphenyl]-4-carbohydrazide] are 10.93 ± 0.04%, 9.37 ± 0.09%, 4.12 ± 0.33% and 41.48 ± 0.05%.
In the same order, the values of `COc1cc(-c2ccc(/C=N/NC(=O)c3ccncc3)o2)c(OC)cc1-c1cnc2ccccc2n1` [QW5, (E)-N’-((5-(2,5-dimethoxy-4-(quinoxalin-2-yl)phenyl)furan-2-yl)methylene)isonicotinohydrazide] are 31.13 ± 0.23%, 26 ± 0.37%, 18.52 ± 0.18% and 30.6 ± 0.51%.
In the case of `COc1cc(-c2ccc(/C=N/NC(=O)c3ccccc3)o2)c(OC)cc1-c1ccc2nccnc2c1` [QW10, (E)-N’-((5-(2,5-dimethoxy-4-(quinoxalin-6-yl)phenyl)furan-2-yl)methylene)benzohydrazide], the inhibition at 20 µM was 4.3 ± 0.45% in experiment [1], 8.09 ± 0.13% in experiment [2], 8.82 ± 0.08% in experiment [3] and 10.9 ± 0.46% in experiment [4].
In the same order, the values of `COc1cc(-c2ccc(/C=N/NC(=O)c3cccnc3)o2)c(OC)cc1-c1cnc2ccccc2n1` [QW3, (E)-N’-((5-(2,5-dimethoxy-4-(quinoxalin-2-yl)phenyl)furan-2-yl)methylene)nicotinohydrazide] are 38.81 ± 0.3%, 32.6 ± 0.65%, 11.63 ± 0.03% and 33.8 ± 0.41%.
As to `COc1cc(-c2cc(OC)c3ccccc3c2OC)c(OC)cc1-c1ccc(/C=N/NC(=O)c2cccc(C)c2)o1` [QW23, (E)-N’-((5-(4-(1,4-dimethoxynaphthalen-2-yl)-2,5-dimethoxyphenyl)furan-2-yl)methylene)-3-methylbenzohydrazide], the inhibition at 20 µM was 0.84 ± 0.64% in experiment [1], 2.99 ± 0.25% in experiment [2], 1.87 ± 0.33% in experiment [3] and 2.26 ± 0.03% in experiment [4].

By inhibition is commonly meant the drop in the measured response relative to a control, in per cent.
